Structures are written as SMILES. pIC50: −log10 of the molar value. Bounds are passed on as bounds.

The values below come from patent publication US10968210B2, “Diamino-alkylamino-linked arylsulfonamide compounds with selective activity in voltage-gated sodium channels” (Merck Sharp & Dohme Corp., priority 2016, dated 2021).

Assay [1] has as its target T1, human Nav 1.5 channels stably expressed in HEK 293 cells (Homo sapiens, UniProt Q14524).
T1 construct: expressed in transfected cells; host or cells: HEK 293
The assay is described as follows: IonWorks Quattro automated patch-clamp, inactivated state block of Nav 1.5 (reported as ratio to Nav 1.7 potency). The class given is cell-based. Conditions: selectivity for Nav 1.7 over Nav 1.5, both by IonWorks. As for the experimental part: IonWorks® Experimental Procedure
Compounds were tested on human Nav 1.7 and Nav 1.5 channels stably expressed in HEK 293 cells. Sodium current measurements on IonWorks Quattro: An automated patch-clamp assay on the IonWorks Quattro platform (Molecular Devices) was used to measure state-dependent inhibition of human Nav 1.7 and Nav 1.5 channels. Cells were sealed on a planar substrate using the Population Patch Plate (PPC) technology. Electrical access was obtained using both nystatin and amphotericin. A double-pulse protocol was used for the determination of IC50 values for inactivated state block. Nav 1.7 and Nav 1.5 expressing cells were voltage clamped at −100 mV and −110 mV, respectively. A depolarizing prepulse to −10 mV (Nav 1.7) or −30 mV (Nav 1.5) for 1000 ms followed by a 10 ms repolarization to ˜100 mV (Nav1.7) or −110 mV (Nav 1.5) was given to generate fractional channel inactivation of ˜50%, followed by a 10 ms test pulse to −10 mV (Nav 1.7) or −30 mV (Nav 1.5) to measure peak current in control conditions and after compound addition. The following recording solutions were used (mM). External: 150 NaCl, 2 CaCl2, 5 KCl, 1 Mg Cl2, 10 HEPES, 12 Dextrose; internal: 120 CsF, 30 CsCl, 10 EGTA, 5 HEPES, 5 NaF, 2 MgCl2.
For all electrophysiology experiments, offline analysis was used to determine percent inhibition as a function of drug concentration. IC50 values were determined by fitting to the Hill equation.
The various compounds in Examples 1 through 4 and Tables 1 through 3 exemplified above were assayed for activity and selectivity using the foregoing IonWorks® technique. The results are reported in the following paragraph in a format expressing the identification of the compound with reference Example and compound (e.g. Ex 1-9 is Example 1, compound 9) followed by the observed potency in nM and the ratio of Nav1.7 potency: Nav1.5 potency as described here. Thus, Ex1-9: 1.7=65/ratio=641 identifies compound Example 1, compound 9 as having 65 nM potency for the Nav 1.7 sodium ion channel (as measured by IonWorks®) and a ratio of 641 Nav 1.7: Nav 1.5 potency, determined by IonWorks® measurement.
A general note: In patch-clamp work, channel activity is measured electrically.

The target in assay [2] is T2, human Nav 1.7 channels stably expressed in HEK 293 cells (Homo sapiens, UniProt Q15858).
T2 construct: expressed in transfected cells; host or cells: HEK 293
T2 sequence (Q15858 whole entry): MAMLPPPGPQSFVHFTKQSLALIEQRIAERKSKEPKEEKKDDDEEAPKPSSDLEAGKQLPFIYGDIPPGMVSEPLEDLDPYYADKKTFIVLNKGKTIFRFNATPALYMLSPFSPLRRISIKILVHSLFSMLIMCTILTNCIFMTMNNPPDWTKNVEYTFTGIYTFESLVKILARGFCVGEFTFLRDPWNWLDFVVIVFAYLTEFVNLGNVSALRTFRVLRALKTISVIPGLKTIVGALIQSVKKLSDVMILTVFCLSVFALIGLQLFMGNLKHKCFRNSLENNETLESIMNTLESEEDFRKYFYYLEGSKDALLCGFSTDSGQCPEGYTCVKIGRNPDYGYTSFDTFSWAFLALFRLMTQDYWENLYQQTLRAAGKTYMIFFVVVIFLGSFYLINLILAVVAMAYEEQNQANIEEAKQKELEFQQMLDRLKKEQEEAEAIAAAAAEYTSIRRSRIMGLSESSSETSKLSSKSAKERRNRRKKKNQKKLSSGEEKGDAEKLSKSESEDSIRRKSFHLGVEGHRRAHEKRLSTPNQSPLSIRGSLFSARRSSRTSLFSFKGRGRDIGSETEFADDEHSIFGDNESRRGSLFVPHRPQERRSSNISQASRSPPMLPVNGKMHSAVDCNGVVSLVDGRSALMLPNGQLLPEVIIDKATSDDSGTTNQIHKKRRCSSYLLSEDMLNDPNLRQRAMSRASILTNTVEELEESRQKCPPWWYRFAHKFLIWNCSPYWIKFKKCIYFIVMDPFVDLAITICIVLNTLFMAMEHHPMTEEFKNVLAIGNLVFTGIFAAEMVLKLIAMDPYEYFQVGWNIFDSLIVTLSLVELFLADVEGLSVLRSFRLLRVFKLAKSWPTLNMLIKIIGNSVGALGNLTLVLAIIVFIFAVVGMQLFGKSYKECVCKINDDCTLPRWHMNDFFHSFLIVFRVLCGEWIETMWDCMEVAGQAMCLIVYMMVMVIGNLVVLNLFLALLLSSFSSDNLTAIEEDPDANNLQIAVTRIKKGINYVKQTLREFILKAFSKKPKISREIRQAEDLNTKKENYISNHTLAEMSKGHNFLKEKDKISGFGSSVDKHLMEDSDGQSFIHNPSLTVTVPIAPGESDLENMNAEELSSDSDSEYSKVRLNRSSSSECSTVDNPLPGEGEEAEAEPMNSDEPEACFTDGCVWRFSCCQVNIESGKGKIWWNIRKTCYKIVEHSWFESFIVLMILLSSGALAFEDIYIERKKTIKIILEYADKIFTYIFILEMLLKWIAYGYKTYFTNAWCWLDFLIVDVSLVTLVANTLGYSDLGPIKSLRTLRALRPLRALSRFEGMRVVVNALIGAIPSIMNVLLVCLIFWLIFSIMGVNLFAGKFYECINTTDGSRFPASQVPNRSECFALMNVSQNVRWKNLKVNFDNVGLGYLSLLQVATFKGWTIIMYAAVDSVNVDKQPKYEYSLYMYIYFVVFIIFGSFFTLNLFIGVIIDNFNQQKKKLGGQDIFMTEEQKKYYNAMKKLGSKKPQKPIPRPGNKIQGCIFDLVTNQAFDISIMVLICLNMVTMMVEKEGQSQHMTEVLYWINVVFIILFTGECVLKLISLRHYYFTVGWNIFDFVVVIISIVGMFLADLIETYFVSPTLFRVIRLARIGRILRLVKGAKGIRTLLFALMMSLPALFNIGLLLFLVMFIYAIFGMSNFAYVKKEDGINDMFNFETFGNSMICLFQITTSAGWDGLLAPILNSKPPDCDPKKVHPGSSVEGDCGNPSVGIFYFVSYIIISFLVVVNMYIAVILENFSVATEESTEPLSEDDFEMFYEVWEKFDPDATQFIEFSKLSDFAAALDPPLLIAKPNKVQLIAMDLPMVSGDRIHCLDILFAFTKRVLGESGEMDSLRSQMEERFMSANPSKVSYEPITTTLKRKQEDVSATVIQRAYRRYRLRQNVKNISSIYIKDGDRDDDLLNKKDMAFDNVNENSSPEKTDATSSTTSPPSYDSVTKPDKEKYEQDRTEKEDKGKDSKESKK
The assay is described as follows: IonWorks Quattro automated patch-clamp, inactivated state block of Nav 1.7. The conditions noted are these: double-pulse protocol, HEK 293 cells held at -100 mV, read-out: potency for the Nav 1.7 sodium ion channel (IC50, IonWorks). The format is cell-based. The gist of the method: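 Inactivated-state block was recorded by automated perforated patch (nystatin plus amphotericin) using a double-pulse protocol. Holding was −100 mV (Nav1.7) or −110 mV (Nav1.5), with a 1000 ms prepulse to −10/−30 mV giving ~50% inactivation, then a 10 ms test pulse. IC50s came from Hill fits of peak current inhibition.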

T1 sequence (Q14524 whole entry): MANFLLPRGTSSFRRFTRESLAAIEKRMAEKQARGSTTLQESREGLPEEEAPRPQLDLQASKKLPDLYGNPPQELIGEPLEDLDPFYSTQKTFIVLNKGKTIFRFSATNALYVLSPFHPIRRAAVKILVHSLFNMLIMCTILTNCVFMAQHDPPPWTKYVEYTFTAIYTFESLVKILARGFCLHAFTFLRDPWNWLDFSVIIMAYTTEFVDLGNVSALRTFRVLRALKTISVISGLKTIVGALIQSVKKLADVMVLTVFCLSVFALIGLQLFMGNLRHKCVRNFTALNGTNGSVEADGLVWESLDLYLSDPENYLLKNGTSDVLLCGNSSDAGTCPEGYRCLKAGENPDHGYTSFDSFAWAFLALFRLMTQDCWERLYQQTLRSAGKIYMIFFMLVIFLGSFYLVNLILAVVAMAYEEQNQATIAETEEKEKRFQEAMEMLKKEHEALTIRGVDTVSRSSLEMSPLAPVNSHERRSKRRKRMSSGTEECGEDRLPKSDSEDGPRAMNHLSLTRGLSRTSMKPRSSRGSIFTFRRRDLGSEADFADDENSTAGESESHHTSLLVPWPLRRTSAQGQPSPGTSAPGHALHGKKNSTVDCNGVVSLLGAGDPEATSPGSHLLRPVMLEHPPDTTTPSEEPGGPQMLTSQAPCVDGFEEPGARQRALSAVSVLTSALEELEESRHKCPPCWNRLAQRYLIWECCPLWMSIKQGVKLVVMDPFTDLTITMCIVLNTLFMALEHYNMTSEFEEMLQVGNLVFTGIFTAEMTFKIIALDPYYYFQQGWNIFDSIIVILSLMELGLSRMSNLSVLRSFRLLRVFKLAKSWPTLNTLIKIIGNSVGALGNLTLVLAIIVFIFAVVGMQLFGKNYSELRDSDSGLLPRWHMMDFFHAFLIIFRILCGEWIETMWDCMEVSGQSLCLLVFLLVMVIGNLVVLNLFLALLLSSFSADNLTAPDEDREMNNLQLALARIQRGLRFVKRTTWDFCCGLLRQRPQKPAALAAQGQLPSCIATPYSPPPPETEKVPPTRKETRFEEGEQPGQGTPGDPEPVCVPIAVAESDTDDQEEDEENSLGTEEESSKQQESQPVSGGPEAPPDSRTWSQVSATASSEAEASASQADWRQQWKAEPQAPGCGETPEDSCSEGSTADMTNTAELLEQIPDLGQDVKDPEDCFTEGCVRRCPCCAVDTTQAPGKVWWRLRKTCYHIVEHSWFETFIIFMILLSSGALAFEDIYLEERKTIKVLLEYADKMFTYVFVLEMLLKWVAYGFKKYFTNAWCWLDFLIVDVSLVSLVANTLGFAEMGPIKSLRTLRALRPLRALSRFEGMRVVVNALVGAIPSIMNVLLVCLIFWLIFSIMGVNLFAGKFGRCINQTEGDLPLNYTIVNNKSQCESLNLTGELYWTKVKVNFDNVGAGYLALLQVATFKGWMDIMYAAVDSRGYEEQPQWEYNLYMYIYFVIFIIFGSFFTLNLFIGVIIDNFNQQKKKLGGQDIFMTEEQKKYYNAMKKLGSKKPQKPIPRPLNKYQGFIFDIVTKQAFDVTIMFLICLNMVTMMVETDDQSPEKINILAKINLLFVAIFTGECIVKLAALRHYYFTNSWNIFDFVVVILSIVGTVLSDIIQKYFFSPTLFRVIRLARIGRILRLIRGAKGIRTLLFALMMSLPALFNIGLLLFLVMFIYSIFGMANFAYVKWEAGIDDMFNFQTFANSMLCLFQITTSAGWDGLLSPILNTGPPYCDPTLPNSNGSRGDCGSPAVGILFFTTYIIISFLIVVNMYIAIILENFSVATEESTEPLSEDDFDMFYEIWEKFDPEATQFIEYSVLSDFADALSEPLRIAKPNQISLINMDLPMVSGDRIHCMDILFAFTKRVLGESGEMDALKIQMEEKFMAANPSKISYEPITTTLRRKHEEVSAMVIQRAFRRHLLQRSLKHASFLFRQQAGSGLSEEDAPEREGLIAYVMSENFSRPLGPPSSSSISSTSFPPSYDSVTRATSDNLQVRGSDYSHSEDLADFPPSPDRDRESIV

The pIC50 is the IC50 on a negative log10 scale, so that one unit is a factor of ten. Regarding `O=S(=O)(Nc1nccs1)c1cc(Cl)c(NCCCCNC[C@H]2C[C@@H](c3ccccc3)CN2)cc1F` [Ex 8-11, 5-chloro-2-fluoro-4-{[4-({[(2R,4S)-4-phenylpyrrolidin-2-yl]-methyl}amino)butyl]amino}-N-1,3-thiazol-2-yl-benzenesulfonamide], in assay [1], the “ratio of Nav 1.7 : Nav 1.5 potency (IonWorks)” value (“ratio” below) was over 2360. Also, in assay [2], the pIC50 is 7.85.

For `N[C@H]1[C@@H]2CC[C@H]1N(CCCCNc1cc(F)c(S(=O)(=O)Nc3nccs3)cc1Cl)C2` [Ex 1-20, 4-({4-[(1R,4R,7S)-7-amino-2-azabicyclo[2.2.1]hept-2-yl]butyl}amino)-5-chloro-2-fluoro-N-1,3-thiazol-2-ylbenzenesulfonamide], the “ratio” value in assay [1] is reported as over 590. In addition, the pIC50 in assay [2] is 7.25.

For `NCC1CN(CCCCNc2cc(F)c(S(=O)(=O)Nc3nccs3)cc2Cl)C1` [Ex 1-51, 4-({4-[3 (aminomethyl)azetidin-1-yl]butyl}amino)-5-chloro-2-fluoro-N-1,3-thiazol-2-ylbenzenesulfonamide], in assay [1], the “ratio” value is on record as over 2200. Also, the pIC50 in assay [2] was 7.82.

As to `N[C@@H]1CCN(CCCCNc2cc(F)c(S(=O)(=O)Nc3nccs3)cc2Cl)C1` [Ex 1-36, 4-({4-[(3R)-3-aminopyrrolidin-1-yl]butyl}amino)-5-chloro-2-fluoro-N-1,3-thiazol-2-ylbenzenesulfonamide], in assay [1], the “ratio” value is recorded as over 1830. In assay [2], the pIC50 was 7.74.

For the compound `O=S(=O)(Nc1nccs1)c1cc(Cl)c(NCCCCN2C[C@H]3CNC[C@H]3C2)cc1F` [Ex 1-22, 5-chloro-2-fluoro-4-({4-[(3aR,6aS)-hexahydropyrrolo[3,4-c]pyrrol-2(1H)-yl]butyl}amino)-N-1,3-thiazol-2-ylbenzenesulfonamide], the “ratio” value in assay [1] was over 1270. For the same compound, the pIC50 in assay [2] was 7.59.

For the compound `O=S(=O)(Nc1nccs1)c1ccc(NCCCCNC[C@@H]2CCCN2)c(Cl)c1` [Ex 7-12, 3-chloro-4-[(4-{[(2S)-pyrrolidin-2-ylmethyl]amino}butyl)amino]-N-1,3-thiazol-2-ylbenzenesulfonamide], the “ratio” value in assay [1] is reported as over 1200. In addition, the pIC50 in assay [2] was 7.57.

With `O=S(=O)(Nc1nccs1)c1cc(Cl)c(NCCCCNC[C@@H]2C[C@H](Oc3ccccc3)CN2)cc1F` [Ex 8-5, 5-chloro-2-fluoro-4-{[4-({[(2S,4S)-4-phenoxypyrrolidin-2-yl]methyl}amino)butyl]-amino}-N-1,3-thiazol-2-yl-benzenesulfonamide], in assay [1], the “ratio” value was found to be 425. Moreover, the pIC50 in assay [2] was 7.40.

As for `O=S(=O)(Nc1ncc(F)s1)c1cc(Cl)c(NCCCCNCCNC2C3CC4CC(C3)CC2C4)cc1F` (stereo not shown) [Ex 16-07, 5-chloro-2-fluoro-N-(5-fluoro-1,3-thiazol-2-yl)-4-[(4-{[2-(tricyclo[3.3.1.1~3,7~]dec-2-yl-amino)-ethyl]amino}butyl)-amino]-benzene-sulfonamide], the “ratio” value in assay [1] is reported as over 17400. Also, the negative logarithm of the IC50 (pIC50) in assay [2] was 8.72.

`O=S(=O)(Nc1nccs1)c1cc(Cl)c(NCCCC(Cc2ccccc2)NC[C@@H]2CCCN2)cc1F` (stereo partly drawn) [Ex 6-9, 5-chloro-2-fluoro-4-[(5-phenyl-4-{[(2S)-pyrrolidin-2-ylmethyl]amino}pentyl)amino]-N-1,3-thiazol-2-ylbenzenesulfonamide]: the “ratio” value in assay [1] was 1530. Also, the pIC50 in assay [2] was 7.77.

Turning to `COc1ccc(CC2(CNCCCCNc3cc(F)c(S(=O)(=O)Nc4nccs4)cc3Cl)CCCN2)cc1` (single isomer, unassigned) [Ex 1-16 Enantiomer B, (R or S)-5-chloro-2-fluoro-4-{[4-({[2-(4-methoxybenzyl)pyrrolidin-2-yl]methyl}amino)butyl]amino}-N-1,3-thiazol-2-ylbenzenesulfonamide], the “ratio” value in assay [1] worked out at 185. Also, the pIC50 in assay [2] was 6.89.

For the compound `O=S(=O)(Nc1nccs1)c1cc(Cl)c(NCCCCNCC2Cc3ccccc3CN2)cc1F` (single isomer, unassigned) [Ex 1-18, (R or S)-5-chloro-2-fluoro-4-({4-[(1,2,3,4-tetrahydroisoquinolin-3-ylmethyl)amino]butyl}amino)-N-1,3-thiazol-2-ylbenzenesulfonamide], the “ratio” value in assay [1] is listed as over 4177. In addition, the pIC50 in assay [2] was 8.10.

Turning to `NC1CCN(CCCCNc2cc(F)c(S(=O)(=O)Nc3nccs3)cc2Cl)CC1` [Ex 1-49, 4-{[4-(4-aminopiperidin-1-yl)butyl]amino}-5-chloro-2-fluoro-N-1,3-thiazol-2-ylbenzenesulfonamide], in assay [1], the “ratio” value was over 1000. Also, in assay [2], the negative-log IC50 (pIC50) is 7.48.

With `CN[C@@H]1CCN(CCCCNc2cc(F)c(S(=O)(=O)Nc3ncns3)cc2Cl)C1` [Ex 16-03, 5-chloro-2-fluoro-4-({4-[(3R)-3-(methylamino)pyrrolidin-1-yl]-butyl}-amino)-N-1,2,4-thiadiazol-5-ylbenzene-sulfonamide], the “ratio” value in assay [1] was found to be 1930. In addition, the pIC50 in assay [2] was 7.85.

Turning to `COc1ccc(CC2(CNCCCCNc3cc(F)c(S(=O)(=O)Nc4nccs4)cc3Cl)CCCN2)cc1` (single isomer, unassigned) [Ex 1-16 Enantiomer A, (S or R)-5-chloro-2-fluoro-4-{[4-({[2-(4-methoxybenzyl)pyrrolidin-2-yl]methyl}amino)butyl]amino}-N-1,3-thiazol-2-ylbenzenesulfonamide], the “ratio” value in assay [1] amounted to 50. Also, the pIC50 in assay [2] is 6.62.

Take `COc1cccc(CC2(CNCCCCNc3cc(F)c(S(=O)(=O)Nc4nccs4)cc3Cl)CCCN2)c1` (stereo not shown) [Ex 1-34, 5-chloro-2-fluoro-4-{[4-({[2-(3-methoxy-benzyl)-pyrrolidin-2-yl]methyl}-amino)-butyl]amino}-N-1,3-thiazol-2-yl-benzenesulfonamide]: the “ratio” value in assay [1] is over 510. Besides, the pIC50 in assay [2] was 7.19.

Consider `O=S(=O)(Nc1nccs1)c1cc(Cl)c(NCCCCN[C@@H]2[C@H]3CC[C@@H]2NC3)cc1F` [Ex 1-25, 4-({4-[(1S,4S,7R)-2-azabicyclo[2.2.1]hept-7-ylamino]butyl}amino)-5-chloro-2-fluoro-N-1,3-thiazol-2-ylbenzenesulfonamide], for which, in assay [1], the “ratio” value is over 1590. In assay [2], the pIC50 is 7.68.

For `O=S(=O)(Nc1nccs1)c1cc(Cl)c(NCCCCN2CCCNCC2)cc1F` [Ex 1-53, 5-chloro-4-{[4-(1,4-diazepan-1-yl)butyl]-amino}-2-fluoro-N-1,3-thiazol-2-yl-benzenesulfonamide], the “ratio” value in assay [1] was over 418. In assay [2], the negative-log IC50 (pIC50) is 7.10.
